Test results as given in patent publication US20230032934A1, “METHOD OF PRODUCING TUMOR-REACTIVE T CELL COMPOSITION USING MODULATORY AGENTS” (Myst Therapeutics, LLC, priority 2019, published 2023).
Entries after “also recorded” stand apart in the source; their conditions may differ. Where a SMILES comes first, the peptide text is derived from it. The star is where a group is joined. Cbz = O=C(OCc1ccccc1)*; CH2F = FC*

Legend:
[1] = tested on: expanded human T cells from three healthy donors; experiment: Cytokines, modulators and agonist antibodies with IL-2 on T cell number and naive/central memory phenotype; type: cell-based
Procedure: PBMC from three healthy donors were activated, expanded, and cryopreserved as described in Example 11. […] As previously described, stimulation of the healthy donor T cells prior to cryopreservation were carried out with anti-CD3 (OKT3) stimulation in order to mimic conditions present in the tumor microenvironment (TME).
Cells were next seeded into gas permeable 100M culture vessels and expanded for 7-14 days to achieve a large bank of T cells, and cryopreserved.
Cells were maintained in culture for 6 days, with a 50% medium exchange occurring at 3 days post culture initiation.
At the end of the culture period for all culture conditions, cells were assessed for cell count and sub-phenotypes of naïve and central memory T cells by flow cytometry by staining with CD45RA and CCR7 (naïve, CD45RA+ CCR7+; “central” memory, CD45RA− CCR7+).

[2] = tested on: PBMC from three healthy donors; experiment: T cell expansion with FasL blockade or caspase inhibition, anti-CD3 (OKT3) stimulation; type: cell-based, human; settings: OKT3 activation; agent replenished at each media exchange (continuous); 2 μM Z-VAD-FMK or 500 ng/ml NOK-1
Procedure: Apoptotic inhibitors directed against Fas- and caspase-mediated pathways were assessed to determine effects on tumor reactive T cells during manufacturing. The studies were carried out in healthy donors, and thus, stimulation of the T cells were carried out with anti-CD3 (OKT3) or anti-CD3/anti-CD28 stimulation in order to mimic conditions present in the tumor microenvironment (TME). Constant activation signals present in the tumor microenvironment, as can be stimulated by anti-CD3 or anti-CD3/anti-CD28 activation can be detrimental to T cell growth. Cellular viability and projected cell numbers were used to compare the impact of modulation of apoptotic pathways in both a transient and a continuous activation assay, the latter of which more closely recapitulates the tumor microenvironment.
Cells were then seeded into a 24-well gas permeable cell culture plate at a density of 2.14×10^5 cells/mL (7.5×10^5 cells/cm^2). Cells were activated for 48 hours using 50 ng/ml OKT3, a human anti-CD3 monoclonal antibody, and were additionally treated with agents as described below. […]
Cultures were maintained for at least 13 days with a 50% media exchange every other day beginning on culture day 2. Cell counts and viability were monitored every other day. […]

[3] = tested on: CRC tumor fragment or SCS cultures; experiment: Caspase inhibition in tumor processing (tumor fragment and SCS cultures); type: cell-based, human; settings: 2 μM replenished at each media exchange
Procedure: Half of cultures contained media additionally supplemented with 2 μM of pan-caspase inhibitor Z-VAD-FMK which was replenished at each media exchange. Cultures were incubated at about 37° C. for a minimum of 18 days with a 50% medium exchange occurring every 2-3 days following culture day 5. Cell counts were performed on day 5 and at each medium exchange using the NC-200 Automated Cell Counter (ChemoMetec).

[4] = tested on: expanded human T cells from three healthy donors; experiment: Effect of T cell adjuvants on T cell viability (total viable CD3+ cell count, with and without OKT3); type: cell-based; settings: 10 μg/mL for antibodies, 25 μM for Z-VAD-FMK; 6 days; irrespective of activation status
Procedure: Cells were expanded from PBMC derived from Ficoll gradient separation from three healthy donor's apheresis material. […] Because the studies were carried out in healthy donors, stimulation of the T cells was carried out with anti-CD3 (OKT3) stimulation in order to mimic conditions present in the tumor microenvironment (TME).
Cells were next seeded into gas permeable 100M culture vessels and expanded for 7-14 days to achieve a large bank of T cells, and cryopreserved. […] Half of wells were additionally supplemented with 50 ng/mL OKT3, a human anti-CD3 monoclonal antibody. In total, 15 test adjuvant agents were tested for their impact on cell viability in the presence and absence of anti-CD3 activation (see Table E3). Cells were cultured for 6 days total, including a 50% medium exchange on culture day 3, and monitored for total viable CD3+ cell count.
Total viable CD3+ cell count for cells grown in the absence and presence of OKT3 stimulation are shown in FIGS. 27A-C and FIGS. 28A-C, respectively. The results shown are for the following concentrations of adjuvant: 10 μg/mL for tested antibodies (Tavolixizumab, Oxelumab, Ipilimumab, Tocilizumab, Urelumab, Pembrolizumab, Varlilumab, anti-GITR MK-1248, anto-human FasL); 25 μM for Z-VAD-FMK pan-caspase inhibitor; 250 nM for HSP inhibitor NVP-HSP990; and 1000 IU/mL for cytokine (IL-7, IL-15, IL-21, IL-23, IL-25, IL-27, or IL-35)).

[5] = tested on: PBMC from two healthy donors; experiment: T cell expansion with FasL blockade or caspase inhibition, anti-CD3/anti-CD28 bead stimulation (transient or continuous activation); type: cell-based, human
Procedure: Cells were then seeded into a 24-well gas permeable cell culture plate at a density of 1.5×10^5 cells/mL (5.0×10^5 cells/cm^2).
Culture wells were assigned to one of two treatment groups, transient or continuous activation. For transient activation, anti-CD3/anti-CD28 paramagnetic beads (Dyanbeads™) were added to the culture media at a ratio of 1 bead per cell starting on culture day 0, and then were removed during media exchange on day 2. For continuous activation, anti-CD3/anti-CD28 paramagnetic beads (Dyanbeads™) were added to the culture media at a ratio of 1 bead per cell starting on culture day 0, and then added again on Day 4, and again on Day 6 at a ratio of 1 bead per cell. The anti-CD3/anti-CD28 paramagnetic beads were not removed on Day 2, 4 or 6.
For both the continuous and transient activation, culture wells were assigned to one of five treatment groups as described above for 10 conditions total per donor.
Cell counts and viability were monitored every other day. When cells reached 3×10^6 cells/ml, 1.5×10^6 cells were sub-cultured into a new well of a 24-well gas permeable culture plate with 7 mL final volume of medium and the culture continued as described above.

[6] = tested on: T-cells from three healthy donors; experiment: Activation markers on CD4+ and CD8+ T cells after OKT3 activation, flow cytometry; type: cell-based, human; settings: 50 ng/mL OKT3 vs no OKT3; 3-48 hours
Procedure: Specific markers of activation on the CD4+ and CD8+ cell populations were measured using flow cytometry over a time course of 3-48 hours. Specifically, the following markers were assessed: CD38 and CD39 (FIG. 12A and FIG. 13A), CD134 and CD137 (FIG. 12B and FIG. 13B), and CD69 and CD90 (FIG. 12C and FIG. 13C).

[7] = tested on: cells processed from melanoma tumor fragments; experiment: Anti-CD3 (OKT3) stimulation on expansion of melanoma tumor-derived cells; type: cell-based, human
Procedure: Cells processed from melanoma tumor fragments as described in Examples 1 and 2, were cultured in the presence or absence of 50 ng/mL OKT3, a human anti-CD3 monoclonal antibody. Cell cultures were carried out to between 14 and 31 days, such as between 14 and 21 days, in either a conventional 6-well plate or a gas permeable culture plate with RPMI or OpTmizer media. […] About 50% of cellular media was exchanged every other day beginning on the 5th day of culture as described previously. Cells were then counted using the NC-200 Automated Cell Counter (Chemometec).

Compound | percent of naïve and central memory T cells compared to IL-2 alone ([1]; 0.2 μg/mL-50 μg/mL, Day 6) | CD3+ cells/mL on Day 6 compared to IL-2 alone ([1]; concentrations higher than 0.2 μg/mL) | cell growth (total cell number) [2] | cell viability ([3]; SCS culture) | outgrowth of T cells ([3]; SCS culture) | cell viability ([3]; tumor fragment-derived culture) | outgrowth of cells (fold expansion, total viable cells) ([3]; tumor fragment-derived culture) | viable cell counts versus DMSO treatment control [4] | total viable cell number and viability ([5]; agent continuous, listed as caspase inhibitor) | total viable cell number and viability ([5]; agent transient (day 0 only)) | upregulation of activation markers CD38, CD39, CD134, CD137, CD69, CD90 on CD4+ T cells [6] | upregulation of activation markers CD38, CD39, CD134, CD137, CD69, CD90 on CD8+ T cells [6] | total cell number and fold expansion ([7]; 50 ng/mL OKT3 vs no OKT3, with 300 or 6000 IU/mL IL-2, 14-31 days) | fold expansion ([7]; Donor 6, presence or absence of anti-CD3 stimulation, all conditions)
COC(=O)C[C@H](NC(=O)[C@H](C)NC(=O)[C@@H](NC(=O)OCc1ccccc1)C(C)C)C(=O)CF [Z-VAD-FMK, carbobenzoxy-valyl-alanyl-aspartyl-[O-methyl]-fluoromethylketone] (Cbz-Val-Ala-Asp(OMe)-CH2F) | no effect | substantially increased | greatest cell growth | similarly high | not observed | also high | superior | consistently higher viable cell counts | outperformed the other conditions; also recorded: outperforming the transient condition | outperformed the other conditions | – | – | – | –
OKT3: a human anti-CD3 monoclonal antibody | – | – | – | – | – | – | – | – | – | – | all assessed markers were upregulated to some extent | all assessed markers were upregulated to some extent | did not substantially impact; also recorded: largely similar | 2-4 fold
